Assay results reported in patent US9969749B2, “Inhibitors of IRAK4 activity” (MERCK SHARP & DOHME CORP., priority 2014, dated 2018).

target: IRAK4 (Homo sapiens (Human), UniProt Q9NWZ3); experiment: IRAK4 Kinase Assay (IMAP fluorescence polarization); assay type: biochemical; details: 0.5 nM GST tagged IRAK4, 100 μM ATP, 100 nM fluorescent peptide substrate RP7030, 30 minutes at 25° C.
Method in brief: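 GST-tagged IRAK4 (0.5 nM) phosphorylates 100 nM fluorescent peptide with 100 μM ATP in 10 mM Tris pH 7.2, 1 mM MgCl2, 1 mM DTT, 0.01% Tween 20 for 30 min at 25 °C. Phosphorylation read as IMAP nanoparticle-binding fluorescence polarization after stop reagent.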

Sequence of IRAK4 (Q9NWZ3 whole entry): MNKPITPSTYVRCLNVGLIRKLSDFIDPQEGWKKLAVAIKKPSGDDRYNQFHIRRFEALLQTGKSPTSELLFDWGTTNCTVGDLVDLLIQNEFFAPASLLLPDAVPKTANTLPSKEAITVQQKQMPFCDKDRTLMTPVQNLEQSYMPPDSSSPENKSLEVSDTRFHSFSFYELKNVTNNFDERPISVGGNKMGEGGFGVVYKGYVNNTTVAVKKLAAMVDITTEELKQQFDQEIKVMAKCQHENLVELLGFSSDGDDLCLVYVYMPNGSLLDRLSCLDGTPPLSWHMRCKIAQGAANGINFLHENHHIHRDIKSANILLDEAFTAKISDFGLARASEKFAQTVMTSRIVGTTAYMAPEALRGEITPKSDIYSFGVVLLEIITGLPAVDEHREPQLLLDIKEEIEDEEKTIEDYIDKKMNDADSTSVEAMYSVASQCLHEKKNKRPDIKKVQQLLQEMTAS

Row | IC50 | Structure (SMILES)
1 | 562 nM | Cn1ccnc1-c1ccc2ncnc(N[C@H]3CC[C@H](N4CCOCC4)CC3)c2c1 [Example 2-26, 6-(1-methyl-1H-imidazol-2-yl)-N-[trans-4-(morpholin-4-yl)cyclohexyl]quinazolin-4-amine]
2 | 159 nM | Cn1ncnc1-c1ccc2ncnc(N[C@H]3CC[C@H](N4CCOCC4)CC3)c2c1 [Example 2-27, 6-(1-methyl-1H-1,2,4-triazol-5-yl)-N-[trans-4-(morpholin-4-yl)cyclohexyl]quinazolin-4-amine]
3 | 2 nM | c1nc(N[C@H]2CC[C@H](N3CCOCC3)CC2)c2cc(-c3cnoc3)ccc2n1 [Example 2-28, 6-(isoxazol-4-yl)-N-[trans-4-(morpholin-4-yl)cyclohexyl]quinazolin-4-amine]
4 | 20 nM | COc1cc(-c2ccc3ncnc(N[C@H]4CC[C@H](N5CCOCC5)CC4)c3c2)cnc1F [Example 2-29, 6-(6-fluoro-5-methoxypyridin-3-yl)-N-[trans-4-(morpholin-4-yl)cyclohexyl]quinazolin-4-amine]
5 | < 0.5 nM | Oc1cc(-c2ccc3ncnc(N[C@H]4CC[C@H](N5CCOCC5)CC4)c3c2)cnc1F [Example 2-30, 2-fluoro-5-(4-{[trans-4-(morpholin-4-yl)cyclohexyl]amino}quinazolin-6-yl)pyridin-3-ol]
6 | 73 nM | CN(C)c1cc(-c2ccc3ncnc(N[C@H]4CC[C@H](N5CCOCC5)CC4)c3c2)cnc1F [Example 2-31, 6-[5-(dimethylamino)-6-fluoropyridin-3-yl]-N-[trans-4-(morpholin-4-yl)cyclohexyl]quinazolin-4-amine]
7 | 1 nM | CNc1cc(-c2ccc3ncnc(N[C@H]4CC[C@H](N5CCOCC5)CC4)c3c2)cnc1F [Example 2-32, 6-[6-fluoro-5-(methylamino)pyridin-3-yl]-N-[trans-4-(morpholin-4-yl)cyclohexyl]quinazolin-4-amine]
8 | 28 nM | Fc1cc(-c2ccc3ncnc(N[C@H]4CC[C@H](N5CCOCC5)CC4)c3c2)cnc1Cl [Example 2-33, 6-(6-chloro-5-fluoropyridin-3-yl)-N-[trans-4-(morpholin-4-yl)cyclohexyl]quinazolin-4-amine]
9 | 13 nM | Fc1cc(-c2ccc3ncnc(N[C@H]4CC[C@H](N5CCOCC5)CC4)c3c2)cnc1F [Example 2-34, 6-(5,6-difluoropyridin-3-yl)-N-[trans-4-(morpholin-4-yl)cyclohexyl]quinazolin-4-amine]
10 | 37 nM | FC(F)c1cncc(-c2ccc3ncnc(N[C@H]4CC[C@H](N5CCOCC5)CC4)c3c2)c1 [Example 2-35, 6-[5-(difluoromethyl)pyridin-3-yl]-N-[trans-4-(morpholin-4-yl)cyclohexyl]quinazolin-4-amine]
11 | 10 nM | Nc1cc(-c2ccc3ncnc(N[C@H]4CC[C@H](N5CCOCC5)CC4)c3c2)cnc1Cl [Example 2-36, 6-(5-amino-6-chloropyridin-3-yl)-N-[trans-4-(morpholin-4-yl)cyclohexyl]quinazolin-4-amine]
12 | 1 nM | CN(C)[C@H]1CC[C@H](Nc2ncnc3ccc(-c4cncc(O)c4)cc23)CC1 [Example 3-1, 5-(4-(((Trans)-4-(dimethylamino)cyclohexyl)amino)quinazolin-6-yl)pyridin-3-ol]
13 | 32 nM | CN(C)C(=O)c1cccc(-c2ccc3ncnc(N[C@H]4CC[C@H](N5CCOCC5)CC4)c3c2)n1 [Example 4-1, N,N-Dimethyl-6-(4-(((trans)-4-morpholinocyclohexyl)amino)quinazolin-6-yl)picolinamide]
14 | < 0.5 nM | Oc1cc(-c2ccc3ncnc(N[C@H]4CC[C@H](N5CCC(F)(F)CC5)CC4)c3c2)cnc1F [Example 5-1, 5-(4-{[Trans-4-(4,4-difluoropiperidin-1-yl)cyclohexyl]amino}quinazolin-6-yl)-2-fluoropyridin-3-ol]
15 | 1 nM | COC1CN([C@H]2CC[C@H](Nc3ncnc4ccc(-c5cncc(O)c5)cc34)CC2)C1 [Example 5-2, 5-(4-{[trans-4-(3-methoxyazetidin-1-yl)cyclohexyl]amino}quinazolin-6-yl)pyridin-3-ol]
16 | 1 nM | CN(C1CC1)[C@H]1CC[C@H](Nc2ncnc3ccc(-c4cncc(O)c4)cc23)CC1 [Example 5-3, 5-[4-({trans-4-[cyclopropyl(methyl)amino]cyclohexyl}amino)quinazolin-6-yl]pyridin-3-ol]
17 | < 0.5 nM | COCCN[C@H]1CC[C@H](Nc2ncnc3ccc(-c4cncc(O)c4)cc23)CC1 [Example 5-4, 5-[4-({trans-4-[(2-methoxyethyl)amino]cyclohexyl}amino)quinazolin-6-yl]pyridin-3-ol]
18 | 1 nM | CN1CCN([C@H]2CC[C@H](Nc3ncnc4ccc(-c5cncc(O)c5)cc34)CC2)CC1 [Example 5-5, 5-(4-{[trans-4-(4-methylpiperazin-1-yl)cyclohexyl]amino}quinazolin-6-yl)pyridin-3-ol]
19 | < 0.5 nM | C[C@@H]1CN([C@H]2CC[C@H](Nc3ncnc4ccc(-c5cncc(O)c5)cc34)CC2)C[C@H](C)O1 [Example 5-6, 5-[4-({trans-4-[(2R,6S)-2,6-dimethylmorpholin-4-yl]cyclohexyl}amino)quinazolin-6-yl]pyridin-3-ol]
20 | 8 nM | CNc1cncc(-c2ccc3ncnc(N[C@H]4CC[C@H](N5CCN(S(C)(=O)=O)CC5)CC4)c3c2)c1 [Example 5-7, 6-[5-(methylamino)pyridin-3-yl]-N-{trans-4-[4-(methylsulfonyl)piperazin-1-yl]cyclohexyl}quinazolin-4-amine]
21 | 3 nM | CNc1cncc(-c2ccc3ncnc(N[C@H]4CC[C@H](N5CCC(F)(F)CC5)CC4)c3c2)c1 [Example 5-8, N-[trans-4-(4,4-difluoropiperidin-1-yl)cyclohexyl]-6-[5-(methylamino)pyridin-3-yl]quinazolin-4-amine]
22 | 3 nM | CNc1cncc(-c2ccc3ncnc(N[C@H]4CC[C@H](N5CCC(F)CC5)CC4)c3c2)c1 [Example 5-9, N-[trans-4-(4-fluoropiperidin-1-yl)cyclohexyl]-6-[5-(methylamino)pyridin-3-yl]quinazolin-4-amine]
23 | 8 nM | CNc1cncc(-c2ccc3ncnc(N[C@H]4CC[C@H](N5CCC(CN6CCOCC6)CC5)CC4)c3c2)c1 [Example 5-10, 6-[5-(methylamino)pyridin-3-yl]-N-{trans-4-[4-(morpholin-4-ylmethyl)piperidin-1-yl]cyclohexyl}quinazolin-4-amine]
24 | 2 nM | CNc1cncc(-c2ccc3ncnc(N[C@H]4CC[C@H](N5CCC[C@H](CN6CCOCC6)C5)CC4)c3c2)c1 [Example 5-11, 6-[5-(methylamino)pyridin-3-yl]-N-{trans-4-[(3R)-3-(morpholin-4-ylmethyl)piperidin-1-yl]cyclohexyl}quinazolin-4-amine]
25 | 5 nM | CNc1cncc(-c2ccc3ncnc(N[C@H]4CC[C@H](N5CCC[C@@H](CN6CCOCC6)C5)CC4)c3c2)c1 [Example 5-12, 6-[5-(methylamino)pyridin-3-yl]-N-{trans-4-[(3S)-3-(morpholin-4-ylmethyl)piperidin-1-yl]cyclohexyl}quinazolin-4-amine]
26 | < 0.5 nM | Oc1cc(-c2ccc3ncnc(N[C@H]4CC[C@H](N5CCC(F)CC5)CC4)c3c2)cnc1F [Example 5-13, 2-fluoro-5-(4-{[trans-4-(4-fluoropiperidin-1-yl)cyclohexyl]amino}quinazolin-6-yl)pyridin-3-ol]
